Measured values published in patent US10314784B2, “Compositions of glycopyrronium salt for inhalation” (Novartis AG, priority 2006, dated 2019).

Columns and labels:
[1] = Particle size of micronised drug substance after jet milling; type: physicochemical; settings: after micronisation in jet mill
Protocol: 37 g of magnesium […] are mixed with 1 kg of crystalline glycopyrronium bromide in a Turbula® blender for 5 hours. The resulting mixture is micronised using a Hosokawa Alpine® 100 AFG fluid bed opposed jet mill with the following parameters: classifier speed, 13000 rpm; milling gas pressure, 3.5 bar. The mill is equipped with 3 nozzles of 1.9 mm diameter.
The resulting mixture has a median particle size of about 3 micron (x90=7 micron, x50=3 micron, x10=1 micron). The magnesium stearate is well distributed over the drug substance surface.
(§1) Drug substance 1:50 g of magnesium stearate are mixed with 1 kg of crystalline glycopyrronium bromide in a Turbula® blender for 5 hours. The resulting mixture is micronised using a Hosokawa Alpine® 100 AFG fluid bed opposed jet mill (equipped with 3 nozzles of 1.9 mm diameter) with the following parameters: classifier speed, 13000 rpm; milling gas pressure, 3.5 bar, to give particles that have an average particle size of less than 5 microns.
as §1, with “2:” for “1:50 g of magnesium stearate are mixed with”, “glycopyrroninum” for “glycopyrronium”, “bromide” for “bromide in a Turbula® blender for 5 hours. The resulting mixture”

[2] = single administration of a metered dose, aerosol formulation, asthma; cited from earlier work

| Compound | average particle size [1] | duration of bronchodilation [2] |
| --- | --- | --- |
| C[N+]1(C)CCC(OC(=O)C(O)(c2ccccc2)C2CCCC2)C1 (centres unmarked) [Drug substance 2, glycopyrroninum bromide] | less than 5 microns |  |
| C[N+]1(C)CCC(OC(=O)C(O)(c2ccccc2)C2CCCC2)C1.[Br-] (centres unmarked) [glycopyrrolate, 3-[(cyclopentyl-hydroxyphenylacetyl)oxy]-1,1-dimethyl-pyrrolidinium bromide] |  | up to 12 hours |
